Residues, ends and D or L forms follow the SMILES beside them. *: point of attachment. OiPr = CC(C)O*
Compared with `CC(C)CN1c2ccccc2C(C)(C)C12C=Nc1cc(-c3ccc(N4CCCC4)cc3)c3ccccc3c1O2` (stereo not drawn), `COc1cc(-c2ccccc2C(F)(F)F)c(Cl)cc1C(=O)N1Cc2ccc(C(=O)N(C)Cc3cccnc3)n2Cc2ccccc21` is lower in melting point: 242 to 245 °C for the first, 124 to 126 °C for the second.

First: CCCCCCCCCCCc1nc2c(O)c(NC(C)=O)cc(Cl)c2cc1CCCCCCCCCC
Second: CCCCc1nc2c(N)nc3ccccc3c2n1CCCCNC(=O)Nc1cccc(NC(=O)NCCCCn2c(CCCC)nc3c(N)nc4ccccc4c32)c1
The melting point of the first is lower: 120 to 121 °C for the first, 160 to 166 °C for the second.

First: CC(=O)OCC1OC(n2cc(C)c(=O)[nH]c2=O)CC1F (stereo not drawn)
Second: COc1ccc(-n2cc(C#N)c(=O)[nH]c2=O)c(C)c1
The melting point of the first is lower: 97 to 98 °C for the first, 276 to 278 °C for the second.

First: CCCCCCOc1cccc(C[C@H](NC(=O)c2coc(NS(C)(=O)=O)n2)[C@H](O)CNCc2cccc(CC)c2)c1
Second: CC(C)(C)c1ccc(CNC(=O)NCc2ccc(NS(C)(=O)=O)c([N+](=O)[O-])c2)cc1
The melting point of the first is lower: 85 to 90 °C for the first, 177 to 178 °C for the second.

First: CCCc1cc2c(=O)n3cc(C#N)ccc3nc2s1
Second: N#Cc1ccc(CCC(=O)C2CC2)cc1
The melting point of the first is higher: 217 to 218 °C for the first, 76 °C for the second.

First: COc1ccc(Nc2nc(NC3CCCCCC3)nc(Oc3ccc(C#CC(C)(C)O)cc3)n2)cc1Cl
Second: COc1ccc(N2Cc3cnc(Nc4ccccc4)nc3N([C@@H](C)CO)C2=O)cc1
The melting point of the first is lower: 132 to 134 °C for the first, 140 to 147 °C for the second.

Compared with `O=C(Nc1cc2nc(-c3ccc(C(=O)C45CC6CC(CC(C6)C4)C5)cc3)[nH]c2cn1)c1ccccn1`, `O=C(O)CCNc1ccc2c(C(=O)NCC34CC5CC(CC(C5)C3)C4)c(Cl)ccc2n1` is lower in melting point: 305 °C for the first, 251 to 252 °C for the second.

Compared with `Cc1ccc(Cn2nc(C(=O)NC3C(C)CCCC3C)cc2-c2ccc(Cl)c(Cl)c2)cc1Cl` (stereo not drawn), `CC(=O)OC1=CC(NC(=O)CCc2ccc(Cl)cc2Cl)C(=O)N(C)c2ccccc21` (stereo not drawn) is higher in melting point: 59.9 °C for the first, 142 to 144 °C for the second.

First: Cc1ccc(Cc2cnc(NCCCCc3ncc(Br)cc3N)[nH]c2=O)cn1
Second: CCCn1nc2c(N)nc3ccccc3c2c1CCNC(=O)Nc1ccc(F)cc1
The melting point of the first is lower: 196 to 197 °C for the first, 201 to 202 °C for the second.

First: CN(C)c1cc(C(O)CNC(C)(C)C)ccc1O (stereo not drawn)
Second: Cc1ccc(F)c([Si](C)(C)C)c1C(=O)N(C)C(C)(C)C
The melting point of the first is higher: 108 to 110 °C for the first, 44 to 47 °C for the second.

First: CCOC(=O)Nc1ccc(C(c2ccccc2)n2ccnc2)cc1C=O (stereo not drawn)
Second: O=CC(c1ccccc1)c1nc(-c2ccncc2)cs1 (stereo not drawn)
The melting point of the first is lower: 107 °C for the first, 163 to 164 °C for the second.

Compared with `CC(C)C1COCc2nc3c(N)nc4cc(O)ccc4c3n21` (stereo not drawn), `CCOC(=O)/C=C/c1ccc(OC(C)C)nc1Oc1ccc(Cl)cc1Cl` is lower in melting point: 210 to 215 °C for the first, 92 to 93 °C for the second.

First: CC(CO)N=C(c1ccccc1)c1cc(Cl)ccc1NC(=O)CN (stereo not drawn)
Second: S=C(Nc1ccccc1)N(Cc1ccc(Cl)cc1)C1CCCC1
The melting point of the first is higher: 168 to 172 °C for the first, 129 to 132 °C for the second.

Compared with `CCc1ccc(CCC(=O)O)c(C(=O)O)c1`, `CCCCc1nc(SCC)c(C(=O)O)n1Cc1ccc(C(=O)O)cc1` is lower in melting point: 174 °C for the first, 168 °C for the second.

First: CN1C(C(=O)Nc2ccc(Cl)ccc2=O)=C(O)c2sccc2S1(=O)=O
Second: COC(=O)OC(C)OC1=C(C(=O)Nc2ccccn2)N(C)S(=O)(=O)c2ccccc21 (stereo not drawn)
The melting point of the first is higher: 243 to 245 °C for the first, 150 to 151 °C for the second.

First: COc1ccc2c(c1)CCC1CCNC(=O)C(CC(=O)O)=C21 (stereo not drawn)
Second: COc1ccc2c(c1)CCC1C2CCC2(C)C1CCC2N(C)CCC(C)C (stereo not drawn)
The melting point of the first is higher: 232 to 234 °C for the first, 80 to 80.5 °C for the second.

First: O=C1N(Cc2ccccc2)c2cc(Cl)cc(N3CCNCC3)c2S(=O)(=O)N1Cc1cccc(O)c1
Second: OC(CCN1CCN(c2ccccc2)CC1)c1ccccc1 (stereo not drawn)
The melting point of the first is higher: 230 to 231 °C for the first, 85 to 87 °C for the second.

Compared with `CCOC(Cc1ccc(OCCOC2c3ccccc3CCc3ccccc32)cc1)C(=O)O` (stereo not drawn), `Cn1nc(COc2ccc(CCCC#N)cc2)nc1-c1ccccc1` is lower in melting point: 148 to 150 °C for the first, 106 to 107 °C for the second.

First: CCc1cn2nc(C)ccc2n1
Second: CCOC(=O)c1ncn(-c2nc(C)cs2)c1S
The melting point of the first is lower: 53 to 55 °C for the first, 193 to 195 °C for the second.

Compared with `CN(C)CCC1CCCCN1C(=O)N1c2ccccc2C(=O)Nc2cccnc21` (stereo not drawn), `CN1C(=O)CC[C@]2(C)c3ccc(C(=O)c4ccccc4)cc3CC[C@@H]12` is lower in melting point: 188 to 190 °C for the first, 116 °C for the second.

First: CC#CCOc1ccc(S(=O)(=O)C2(C(=O)O)CCOCC2)cc1
Second: CC(C)C(=O)NCCOc1ccc(N)cc1
The melting point of the first is higher: 197 °C for the first, 99 to 100 °C for the second.

First: Nc1ccc(-c2cnns2)cc1
Second: Nc1ccc(-c2nc3ccccc3s2)cc1Cl
The melting point of the first is lower: 126 to 128 °C for the first, 160 to 162 °C for the second.

First: O=C(Nc1cc(OCCCO/N=C/c2cc(C(F)(F)F)cc(C(F)(F)F)c2)ccc1C(=O)O)c1ccc(OC(F)(F)F)cc1
Second: COC(=O)c1cscc1NC(=O)COc1ccc(-c2ccc(F)cc2)cc1
The melting point of the first is higher: 184 to 186 °C for the first, 127 to 130 °C for the second.

First: CCC[C@@H]1O[C@](/C=C/C2CC2)(C(F)(F)F)c2cc(Cl)ccc2NC1=O (relative stereo)
Second: NCC(c1ccc(Cl)cc1)C1CCCCCC1O (mixture of isomers)
The melting point of the first is higher: 165 to 167 °C for the first, 92 to 93 °C for the second.

Compared with `CCOC(=O)C(C#N)c1cn(C(=O)OCC)c2ccc(OC)cc12` (stereo not drawn), `COC(=O)C1=C(C)NC(C)=C(C(=O)OCC2CCCO2)C1c1cccc(O)c1` (stereo not drawn) is higher in melting point: 81 to 83 °C for the first, 170 to 172 °C for the second.

First: COc1cc(C=O)ccc1OCc1nc(-c2ccccc2)sc1C
Second: COC(c1nnco1)c1ccccc1COc1ccc(Cl)cc1C (stereo not drawn)
The melting point of the first is higher: 133 to 134 °C for the first, 68 to 70 °C for the second.

First: C=C(CCC(=O)O)CC(N)C(=O)O (stereo not drawn)
Second: CC(C)OC(=O)C(CO)NC(=O)C(CC(=O)O)NC(=O)C1CCCN1 (stereo not drawn) (H-Pro-Asp-Ser-OiPr; configuration not given here)
The melting point of the first is lower: 68 °C for the first, 230 to 233 °C for the second.

First: CN1CCN(c2cccc3c2C[C@H](NC(=O)c2ccc(-n4cccc4)cc2)CC3)CC1
Second: O=C(O)CCC(=O)N1CCCc2cc(S(=O)(=O)N3CCN(c4cccc(Cl)c4)CC3)ccc21
The melting point of the first is higher: 245 to 247 °C for the first, 135 to 136 °C for the second.

First: CCc1c(N(C(C)=O)c2cc(C)cc(C)c2)[nH]c(=O)[nH]c1=O
Second: CCN(CC)C(=O)c1cc(-c2cccc([N+](=O)[O-])c2)c2sccc2c1
The melting point of the first is higher: 238 to 239 °C for the first, 106 °C for the second.

`COc1ccc(-c2ccc3[nH]c(C(=O)O)cc3c2)cc1` and `c1ccc(-c2ncc(-c3ccc4cc(OCc5nnn[nH]5)ccc4c3)o2)cc1` cannot be ordered by melting point: > 230 °C for the first, 239 to 241 °C for the second.

First: COC(=O)c1cc(C(=O)c2ncc3ccc(C(=O)OC(C)(C)C)cn23)ccc1[N+](=O)[O-]
Second: COc1ccc(S(=O)(=O)N2c3ccccc3-c3ccccc3C2C(C)(C)C)cc1 (stereo not drawn)
The melting point of the first is higher: 170 °C for the first, 156 to 158 °C for the second.

Compared with `CC1SC=C2c3ccccc3C=CN2C1=O` (stereo not drawn), `NC1=CC(=O)CC(c2ccccc2)C1` (stereo not drawn) is higher in melting point: 67 to 68 °C for the first, 190 to 191 °C for the second.

First: FC(F)(F)c1ccc(OC2(c3ccccc3)CCNCC2)cc1
Second: CN(C1CN(C(=O)Nc2ccc(C(F)(F)F)cc2)N=C1c1ccc(Cl)cc1)S(C)(=O)=O (stereo not drawn)
The melting point of the first is lower: 104 to 105 °C for the first, 105 to 112 °C for the second.

Compared with `COC(=O)[C@H](CO)NC(=O)c1ncn2c1CN(C)C(=O)c1sccc1-2`, `CC(=O)Nc1ccc(OCC(O)CNC(C)(C)C)c(C2=NNC(=O)CC2)c1` (stereo not drawn) is lower in melting point: 158 to 160 °C for the first, 102 to 109 °C for the second.

First: NC(=O)c1cn2c(nc1=O)CCC2
Second: C=C1CCCc2c(C(=O)OCC)n(C)c3cccc1c23
The melting point of the first is higher: 277 to 278 °C for the first, 45 to 49 °C for the second.

Compared with `CC(=O)OC1CSC(Oc2ccnc(-c3cccnc3)c2)C(OC(C)=O)C1OC(C)=O` (stereo not drawn), `COc1ccc(C(=O)Oc2ccc(C(=O)O)c(O)c2)cc1C12CC3CC(CC(C3)C1)C2` is higher in melting point: 185 °C for the first, 243 to 244 °C for the second.

First: O=C(CCc1ccc2ccccc2c1)c1cnc2sc3c(n12)CCCCC3
Second: CCOC(=O)CCc1cnc(-c2cc3cccc(N(C)S(=O)(=O)c4cccs4)c3[nH]2)s1
The melting point of the first is lower: 76 to 78 °C for the first, 126 to 127 °C for the second.

First: Cc1cccc(-c2c(C3CCN(C)CC3)[nH]c(=O)c3ccccc23)c1
Second: O=C1CNCc2[nH]c3ccccc3c21
The melting point of the first is lower: 214 to 216 °C for the first, 220 to 233 °C for the second.

Compared with `CN=C1N(C)C(=O)CN1c1ccccc1`, `CCn1nnn(CCN2CCC(COC)(N(OCc3ccccc3)C(C)=O)CC2)c1=O` is higher in melting point: 116 to 118 °C for the first, 140 to 141 °C for the second.

First: Cc1cc2c(Oc3cccc(C(F)(F)F)c3)nc(CCC(F)(F)F)nc2s1
Second: CCN(CC)Cc1cccn1N(C)c1ccnc2cc(C(F)(F)F)ccc12
The melting point of the first is higher: 85 °C for the first, 64 to 66 °C for the second.

First: COC(=O)c1ccc(N)c(C=C(Br)Br)c1
Second: COC(=O)C1CCc2sccc2C1=O (stereo not drawn)
The melting point of the first is higher: 112 to 113 °C for the first, 85 to 86 °C for the second.

Compared with `CC1(C)OCC(NC(=O)c2ccc([N+](=O)[O-])cc2)CO1`, `CC(C)CNC(=O)c1ccc(C2CC2c2ccc(Cl)cc2)cc1` (stereo not drawn) is lower in melting point: 211 °C for the first, 110 °C for the second.

Compared with `N#CCCS(=O)(=O)c1ccc(S(=O)(=O)Cl)cc1`, `Cc1cc(NCc2ccc3c(c2)OCO3)nc(SCC#N)n1` is lower in melting point: 124 to 125 °C for the first, 115 to 118 °C for the second.

First: CN(c1cccc2cc(C3=NCC(CC(=O)N4CCS(=O)CC4)S3)[nH]c12)S(=O)(=O)c1cccs1 (stereo not drawn)
Second: CCOC(=O)C1=C(C#N)Nc2ccnc(OC(C)C)c2C1c1ccccc1C(F)(F)F (stereo not drawn)
The melting point of the first is higher: 149 °C for the first, 138 to 140 °C for the second.

Compared with `COc1cc(-c2csc(N)n2)c(OC)cc1C`, `COc1nc(Cl)cnc1N` is lower in melting point: 191 to 192 °C for the first, 102 to 103 °C for the second.

`O=C(CCCCCCC(=O)N1CCN(CC(c2ccccc2)c2ccccc2)CC1)NO` and `NCC1(O)c2ccccc2C=Cc2ccccc21` cannot be ordered by melting point: 117 to 118 °C for the first, 117 to 120 °C for the second.

First: N#Cc1ccc(-c2cnc3cnc(-c4ccc(O)cc4)nc3c2)cc1
Second: Cn1c(-c2ccc([N+](=O)[O-])cc2)cnc1[C@H](Cc1ccccn1)N(C=O)c1cc2cc(F)ccc2o1
The melting point of the first is higher: 313 to 314 °C for the first, 207 to 208 °C for the second.

First: CC(=NNC(=N)N)c1sc(-c2ccc(C(C)(C)C)cc2)nc1C
Second: On1c(-c2ccncc2)nc2ccc(Cn3ccnc3)cc21
The melting point of the first is higher: 252 to 253 °C for the first, 198 °C for the second.

First: Nc1ccn([C@@H]2C[C@H](CO)[C@@H](O)[C@H]2O)c(=O)n1
Second: CC1(C2CCC3C4CCC5CC=CCC5(C)C4C(=O)CC32C)OCCO1 (stereo not drawn)
The melting point of the first is higher: 214 °C for the first, 130 to 135 °C for the second.
